Reference: patent publication US5908832A, “Peptide analog” (University of Houston - Clearlake, priority 1991, dated 1999)

Experiments:
morphine-dependent rats [1] = experiment: Naloxone-precipitated abstinence in morphine-dependent rats; assay type: in vivo, Sprague-Dawley rats
Description: Each rat was stereotaxically cannulated in the third ventricle under equithesin anesthesia. Cannula placements were subsequently confirmed by injection of methylene blue dye.
Drugs for third ventricle injection were dissolved in isotonic saline.
Following the rats way infusion period, rats were randomly divided into two treatment groups of seven rats each. Each rat received a third ventricular injection of either 600 ng daY8Ra in 30 μl saline or saline alone. Twenty-eight minutes after conclusion of the above injections, all rats were challenged by 10 μg naloxone HCl in 30 μl saline i.c.v.
Each rat was subsequently observed for 20 minutes, commencing with the onset of naloxone challenge.

opiate-naive rats = details: 15 μg i.c.v.; cited from earlier work
specific NPFF receptors = details: spinal cord membranes; cited from earlier work
morphine-dependent rats [2] = details: 2 μg i.c.v.; cited from earlier work
[3] = system: analgesic effects of morphine; details: in vivo; cited from earlier work

## CC(C)C[C@H](NC(=O)[C@@H](N)Cc1ccccc1)C(=O)N[C@@H](Cc1ccccc1)C(=O)N[C@@H](CCC(N)=O)C(=O)N1CCC[C@H]1C(=O)N[C@@H](CCC(N)=O)C(=O)N[C@@H](CCCNC(=N)N)C(=O)N[C@@H](Cc1ccccc1)C(N)=O [NPFF, Phe-Leu-Phe-Gln-Pro-Gln-Arg-Phe-amide]
morphine-dependent rats [1]; 600 ng i.c.v. pretreatment, 10 μg naloxone HCl i.c.v., Example III
  abstinence syndrome after naloxone challenge vs saline pretreatment (one-way ANOVA): no significant differences among groups
morphine-dependent rats [1]; morphine-dependent rats, 600 ng i.c.v., observed 14 minutes from onset of injection, before naloxone
  abstinence signs following the peptide injection itself (total frequency, M±SEM): 3.67±0.99
opiate-naive rats
  induction of quasi-morphine-abstinence syndrome (QMAS): induces a quasi-morphine-abstinence syndrome
Specific NPFF receptors
  affinity of the 125I-Y8Fa binding site: high affinity
morphine-dependent rats [2]
  precipitation of opiate abstinence syndrome: precipitates opiate abstinence syndrome
[3]
  effect on analgesic effects of morphine and certain endogenous opioid peptides: potently antagonizes
